Data on one compound can be found in US20080112967A1, “Process for Refining Ganoderma Spore Polysacchoride” (NANJING ZHONGKE GROUP CORP., LTD., priority 2006, published 2008).

The structures appear in SMILES notation.

Data set [1] concerns mouse transplantation tumor Heps. Kind of data set: inhibitory action of No. 1, oral pour stomach administration, on mouse transplantation tumor Heps. Particulars: masculine reference, dosage 30 mg/kg, once a day, 7 times. Here is the method:
(§1) 1.1 The test medicine: the reference Ganoderma spore polysaccharide (it is named No. 1), it is produced by the method disclosed in the CN1483743, the specific steps is: add Ganoderma spore powder into distilled water, the added amount can shape the Ganoderma spore, shake it up, pelletize, dry in the air, use CO2 supercritical extraction method to remove fat, weigh 10 kg Ganoderma spore which is removed fat, add it into the abstraction pot, add 150 Kg water, soak it for 2 h, heat to boil, keep reflux for 4 h, centrifuge the extracting solution, condense the filtrate to 5 Kg, add three times 95% ethanol, lay it 24 h, filter the polysaccharide precipitation, dry the precipitation so as to obtain the Ganoderma spore polysaccharide.
(§2) 1.2 Animal:ICR mouse, 18-22 g, half male and half female, the mouses is provided by China drug section university animal laboratory. The number of certificate of conformity is: SCXK (SU)2002-0011. The feedstuff is diet pellet, it is provided by China drug section university animal laboratory. Breeding condition: air conditioning room, Temperature 18-24° C., Relative humidity: 70%.
(§3) 1.3 Masculine Drug: endoxan (CTX), HENGRUI MEDICINE CO LTD JIANG. Specification: 200 mg/bottle, Batch Number: 06060121.
3.1.1 administration route: oral pour stomach (ip)
3.1.2 administration period: Inoculate Heps entity type by transplantation tumor methodology, after inoculating 24 h, administrate to the mouse and ip administrate, once a day, administrate for 7 times, at the next day when the administration is stopped, kill the mouse.
(§4) 3.1.3 dosage, there are four groups:
(§5) blank reference group(normal saline)
(§6) 3.1.4 experimental method: Take 40 above-mentioned mouses (Heps entity type inoculated by transplantation tumor methodology), after the mouse is inoculated, weigh the mouse, and divide them into 4 groups, there is 10 mouses in every groups, half male and half female, blank reference group and CTX group are negative and masculine reference group. After inoculating 24 h, administrate to the mouse and ip administrate, once a day, administrate for 7 times, at the next day when the administration is stopped, weigh the mouses and kill them, weigh the weight of tumor, statisticaly treat the obtained data (t verify).

Data set [2] deals with mouse transplantation tumor S180. Kind of data set: inhibitory action of No. 1, oral pour stomach administration, on mouse transplantation tumor S180. Particulars: masculine reference, dosage 30 mg/kg, once a day, 7 times. As to the method: as §1, §2, §3
3.2.1 administration route: oral pour stomach […]
3.2.2 administration period: Inoculate S180 entity type by transplantation tumor methodology, after inoculating 24 h, administrate to the mouse and ip administrate, once a day, administrate for 7 times, at the next day when the administration is stopped, kill the mouse.
(§7) 3.2.3 dosage, there are four groups:
as §5
as §6, with “3.2.4” for “3.1.4”, “(S180” for “(Heps”, “t verify.” for “(t verify).”

In data set [3] the test system is mouse transplantation tumor Heps. Kind of data set: inhibitory action of No. 2, intravenous injection administration, on mouse transplantation tumor Heps. Particulars: masculine reference, dosage 30 mg/kg, once on alternate days, 4 times.
Source text: (§8) 1.1 The test medicine: the Ganoderma spore polysaccharide of the present invention (produced by the method of the present invention, it is named No.2.).
(§9) 1.2 Animal: ICR mouse, 18-22 g, half male and half female, the mouses is provided by China drug section university animal laboratory. The number of ertificate of conformity is: SCXK(SU)2002-0011. The feedstuff is diet pellet, it is provided by China drug section university animal laboratory. Breeding condition: air conditioning room, Temperature 18-24° C., Relative humidity: 70%.
(§10) 1.3 Masculine drug: endoxan (CTX), HENGRUI MEDICINE CO LTD JIANG.
3.1 the inhibitory action of the No. 2 intravenous injection (iv) administration to the mouse transplantation tumor Heps.
3.1.1 administration route: intravenous injection (iv)
3.1.2 administration period: Inoculate Heps entity type by transplantation tumor methodology, after inoculating 24 h, administrate to the mouse and ip administrate, once on alternate days, administrate for 4 times, at the next day when the administration is stopped, kill the mouse.
as §4
(§11) blank reference group (normal saline)
as §6, with “CTX: 20 mg/kg 3.1.4” for “3.1.4”, “on alternate days,” for “a day,”, “4” for “7”, “statistically” for “statisticaly”

The test system of data set [4] is mouse transplantation tumor S180. The data set is described as follows: inhibitory action of No. 2, intravenous injection administration, on mouse transplantation tumor S180. Particulars: masculine reference, dosage 30 mg/kg, once on alternate days, 4 times.
Source text: as §8, §9, §10
3.2.1 administration route: intravenous injection (iv)
3.2.2 administration period: Inoculate S180 entity type by transplantation tumor methodology, after inoculating 24 h, administrate to the mouse and ip administrate, once on alternate days, administrate for 4 times, at the next day when the administration is stopped, kill the mouse.
as §7, §11
as §6, with “3.2.4” for “3.1.4”, “(S180” for “(Heps”, “on alternate days,” for “a day,”, “4” for “7”, “t verify.” for “(t verify).”

On to `O=P1(N(CCCl)CCCl)NCCCO1` (stereo not shown) [CTX, endoxan], for which the “The rate of inhibiting tumor (%)” value in data set [1] is reported as 64.60%; in data set [2], 65.81%; in data set [3], 64.60%; in data set [4], 65.81%. The “Weight(g) After anministration” value is listed as 24.3 ± 2.41 g in data set [1] (X ± SD, n = 10); 24.3 ± 1.68 g in data set [2] (X ± SD, n = 10); 24.3 ± 2.41 g in data set [3] (X ± SD, n = 10); 24.3 ± 1.68 g in data set [4] (X ± SD, n = 10). The “Weight(g) Before anministration” value worked out at 20.1 ± 1.30 g in data set [1] (X ± SD, n = 10); 20.1 ± 0.94 g in data set [2] (X ± SD, n = 10); 20.1 ± 1.30 g in data set [3] (X ± SD, n = 10); 20.1 ± 0.94 g in data set [4] (X ± SD, n = 10). Further, the “the weight of tumor” value in data set [1] (X ± SD, n = 10) is recorded as 0.43 ± 0.15 g; in data set [2] (X ± SD, n = 10), 0.51 ± 0.18 g; in data set [3] (X ± SD, n = 10), 0.43 ± 0.15 g; in data set [4] (X ± SD, n = 10), 0.51 ± 0.18 g.
